Results reported in patent US6610677B2, “Pyrazole compounds useful as protein kinase inhibitors” (Vertex Pharmaceuticals Incorporated, priority 2000, dated 2003).

Tests used:
GSK-3β (AA 1-420) = target: T1, GSK-3β (AA 1-420) (Homo sapiens, UniProt P49841); assay: Ki determination for the inhibition of GSK-3 (coupled enzyme system); assay type: biochemical; conditions: 20 μM ATP, 300 μM peptide, 20 nM GSK-3β, 30° C
T1 construct: GSK-3β (AA 1-420)
Outline: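 Pyruvate kinase/lactate dehydrogenase-coupled NADH assay with 20 nM GSK-3β (AA 1-420), 20 μM ATP, 300 μM phosphopeptide HSSPHQS(PO3H2)EDEEE in HEPES pH 7.5, 1.5% DMSO, 30 °C. Compound (12 points, 0.002–30 μM) preincubated 10 min before ATP start; Ki derived from 10-min rates versus inhibitor concentration.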

Aurora-2 = target: T2, Aurora-2 (Homo sapiens, UniProt O14965); assay: Ki determination for the inhibition of Aurora-2 (coupled enzyme assay); assay type: biochemical; conditions: 70 nM Aurora-2, peptide LRRASLG, 30° C
T2 sequence (O14965 1-403): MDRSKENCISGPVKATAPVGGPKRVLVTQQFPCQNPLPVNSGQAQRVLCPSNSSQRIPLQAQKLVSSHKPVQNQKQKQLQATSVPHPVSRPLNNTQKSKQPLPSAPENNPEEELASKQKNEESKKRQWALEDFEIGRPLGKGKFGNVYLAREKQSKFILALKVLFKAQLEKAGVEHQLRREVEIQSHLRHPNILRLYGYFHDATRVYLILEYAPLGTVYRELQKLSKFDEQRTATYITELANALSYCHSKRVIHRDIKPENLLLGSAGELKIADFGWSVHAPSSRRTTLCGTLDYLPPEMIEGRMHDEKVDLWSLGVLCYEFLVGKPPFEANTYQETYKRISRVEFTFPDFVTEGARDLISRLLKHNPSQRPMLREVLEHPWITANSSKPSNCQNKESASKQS
Outline: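 Ki came from reaction rates plotted against inhibitor concentration, with rates taken as A340 decrease over 5 min at 30° C. Enzyme (70 nM final) was added after 10 min compound preincubation; stock buffer held […], 800 μM LRRASLG, PK/LDH coupling, pH 7.5.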

T1 sequence (P49841 whole entry, the tested form may be a part): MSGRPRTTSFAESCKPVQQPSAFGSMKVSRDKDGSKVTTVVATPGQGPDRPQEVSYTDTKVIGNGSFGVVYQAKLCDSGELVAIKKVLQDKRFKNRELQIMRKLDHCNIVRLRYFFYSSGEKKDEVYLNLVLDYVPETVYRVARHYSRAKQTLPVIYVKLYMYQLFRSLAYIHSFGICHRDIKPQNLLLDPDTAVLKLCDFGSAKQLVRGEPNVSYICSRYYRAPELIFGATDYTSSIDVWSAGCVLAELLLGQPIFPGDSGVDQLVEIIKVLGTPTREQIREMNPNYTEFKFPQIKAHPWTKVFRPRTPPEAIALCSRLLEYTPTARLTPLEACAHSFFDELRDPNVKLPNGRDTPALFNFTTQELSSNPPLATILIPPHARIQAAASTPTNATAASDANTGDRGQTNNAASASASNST

In the case of `Cc1cc(Nc2nc(N3CCNCC3)nc3ccccc23)[nH]n1` [III-105, (5-Methyl-2H-pyrazol-3-yl)-(2-piperazin-1-yl-quinazolin-4-yl)-amine], the Ki (GSK-3β (AA 1-420)) is reported as 100 to 1000 nM, the Ki (Aurora-2) is reported as 100 to 1000 nM and the melting point is reported as 179 to 181 °C.

In the case of `c1ccc(Oc2cccc(-c3nc(Nc4cc(C5CC5)n[nH]4)c4ccccc4n3)c2)cc1` [III-61, (5-Cyclopropyl-2H-pyrazol-3-yl)-[2-(3-phenoxyphenyl)-quinazolin-4-yl]-amine], the Ki (GSK-3β (AA 1-420)) is reported as less than 100 nM, the Ki (Aurora-2) is reported as less than 100 nM and the melting point is reported as 193 to 195 °C.

`N#Cc1cn[nH]c1Nc1nc(-c2ccccc2)nc2ccccc12` [III-103, (4-Cyano-2H-pyrazol-3-yl)-(2-phenyl-quinazolin-4-yl)-amine] gave a Ki (GSK-3β (AA 1-420)) of 1000 to 20000 nM, a Ki (Aurora-2) of 1000 to 20000 nM and a melting point greater than 250 °C.

Work on `Cc1n[nH]c(Nc2nc(-c3ccccc3)nc3ccccc23)c1Br` [III-102, (4-Bromo-5-methyl-2H-pyrazol-3-yl)-(2-phenyl-quinazolin-4-yl)-amine] yielded a Ki (GSK-3β (AA 1-420)) of 100 to 1000 nM, a Ki (Aurora-2) of 100 to 1000 nM and a melting point of 183 to 185 °C.

In the case of `CC(C)c1cc(Nc2nc(-c3ccccc3)nc3ccccc23)[nH]n1` [III-67, (5-Isopropyl-2H-pyrazol-3-yl)-(2-phenyl-quinazolin-4-yl)-amine], the Ki (GSK-3β (AA 1-420)) is reported as less than 100 nM, the Ki (Aurora-2) is reported as less than 100 nM and the melting point is reported as 218 to 219 °C.

`Cc1cc(Nc2nc(N3CCC(CCO)CC3)nc3ccccc23)[nH]n1` [III-110] gave a Ki (GSK-3β (AA 1-420)) of 100 to 1000 nM, a Ki (Aurora-2) of less than 100 nM and a melting point of 175 °C.

With `Cc1cc(Nc2nc(N3CCC(C)CC3)nc3ccccc23)[nH]n1` [III-106, [2-(4-Methylpiperidin-1-yl)-quinazolin-4-yl]-(5-methyl-2H-pyrazol-3-yl)-amine] the Ki (GSK-3β (AA 1-420)) was less than 100 nM, the Ki (Aurora-2) was less than 100 nM and the melting point was 148 to 150 °C.

`OCc1cc(Nc2nc(-c3ccccc3)nc3ccccc23)[nH]n1` [III-74, (5-Hydroxymethyl-2H-pyrazol-3-yl)-(2-phenyl-quinazolin-4-yl)-amine] showed a Ki (GSK-3β (AA 1-420)) of 100 to 1000 nM, a Ki (Aurora-2) of 100 to 1000 nM and a melting point of 238 to 239 °C.

Compound `COCc1cc(Nc2nc(-c3ccccc3)nc3ccccc23)[nH]n1` [III-75, (5-Methoxymethyl-2H-pyrazol-3-yl)-(2-phenyl-quinazolin-4-yl)-amine] has a Ki (GSK-3β (AA 1-420)) of less than 100 nM, a Ki (Aurora-2) of 100 to 1000 nM and a melting point of 190 to 191 °C.

`Cc1cc(Nc2nc(N3CCC(O)CC3)nc3ccccc23)[nH]n1` [III-114, [2-(4-Hydroxypiperidin-1-yl)-quinazolin-4-yl]-(5-methyl-2H-pyrazol-3-yl)-amine] gave a Ki (GSK-3β (AA 1-420)) of 100 to 1000 nM, a Ki (Aurora-2) of less than 100 nM and a melting point of 123 °C.

Compound `c1ccc2c(Nc3ccn[nH]3)nc(-c3ccncc3)nc2c1` [III-64, (2H-Pyrazol-3-yl)-(2-pyridin-4-yl-quinazolin-4-yl)-amine] has a Ki (GSK-3β (AA 1-420)) of 100 to 1000 nM, a Ki (Aurora-2) of 100 to 1000 nM and a melting point of 285 to 286 °C.

For `CC(C)(C)OC(=O)NCCCc1cc(Nc2nc(-c3ccccc3)nc3ccccc23)[nH]n1` [III-80, [5-(3-tert-Butoxycarbonylaminoprop-1-yl)-2H-pyrazol-3-yl]-(2-phenyl-quinazolin-4-yl)-amine], the Ki (Aurora-2) was less than 100 nM and the melting point was 199 to 200 °C.

Compound `CC(C)(C)c1cc(Nc2nc(-c3ccccc3)nc3ccccc23)[nH]n1` [III-68, (5-tert-Butyl-2H-pyrazol-3-yl)-(2-phenyl-quinazolin-4-yl)-amine] has a Ki (GSK-3β (AA 1-420)) of 1000 to 20000 nM, a Ki (Aurora-2) of 1000 to 20000 nM and a melting point of 136 to 137 °C.

`Cc1nc(-c2ccccc2C(F)(F)F)nc(Nc2n[nH]c3ccccc23)c1C` [II-24, [5,6-Dimethyl-2-(2-trifluoromethyl-phenyl)-pyrimidin-4-yl]-(1H-indazol-3-yl)-amine] showed a Ki (GSK-3β (AA 1-420)) of less than 100 nM and a melting point of 183 to 186 °C.

Work on `Cc1nc(-c2ccccc2C(F)(F)F)nc(Nc2n[nH]c3ccc(F)cc23)c1C` [II-25, [5,6-Dimethyl-2-(2-trifluoromethyl-phenyl)-pyrimidin-4-yl]-(5-fluoro-1H-indazol-3-yl)-amine] yielded a Ki (GSK-3β (AA 1-420)) of less than 100 nM and a melting point of 160 to 163 °C.

`Nc1ccc2[nH]nc(Nc3nc(-c4ccccc4C(F)(F)F)nc4ccccc34)c2c1` [II-73, (5-Amino-1H-indazol-3-yl)-[2-(2-trifluoromethyl-phenyl)-quinazolin-4-yl]-amine] showed a Ki (GSK-3β (AA 1-420)) of less than 100 nM and a melting point of 221 to 223 °C.

`COC(=O)c1cc(Nc2nc(-c3ccccc3)nc3ccccc23)[nH]n1` [III-73, (5-Methoxycarbonyl-2H-pyrazol-3-yl)-(2-phenyl-quinazolin-4-yl)-amine] showed a Ki (GSK-3β (AA 1-420)) of less than 100 nM, a Ki (Aurora-2) of 100 to 1000 nM and a melting point of 271 to 273 °C.

Work on `c1ccc2c(c1)CN(c1nc(Nc3cc(C4CC4)n[nH]3)c3ccccc3n1)C2` [III-116, (5-Cyclopropyl-2H-pyrazol-3-yl)-[2-(1,3-dihydro-isoindol-2-yl)-quinazolin-4-yl]-amine] yielded a Ki (GSK-3β (AA 1-420)) of less than 100 nM, a Ki (Aurora-2) of less than 100 nM and a melting point of 237 °C.

Work on `Brc1cn[nH]c1Nc1nc(-c2ccccc2)nc2ccccc12` [III-101, (4-Bromo-2H-pyrazol-3-yl)-(2-phenyl-quinazolin-4-yl)-amine] yielded a Ki (GSK-3β (AA 1-420)) of 1000 to 20000 nM, a Ki (Aurora-2) of 1000 to 20000 nM and a melting point of 189 °C.

For `Cc1cc(Nc2n[nH]c3ccccc23)nc(-c2ccccc2C(F)(F)F)n1` [II-19, (1H-Indazol-3-yl)-[6-methyl-2-(2-trifluoromethyl-phenyl)-pyrimidin-4-yl]-amine], the Ki (GSK-3β (AA 1-420)) was less than 100 nM, the Ki (Aurora-2) was 1000 to 20000 nM and the melting point was 235 to 237 °C.

Work on `c1ccc(-c2nc(Nc3ncn[nH]3)c3ccccc3n2)cc1` [IX-154, (2-Phenyl-quinazolin-4-yl)-(2H-[1,2,4]triazol-3-yl)-amine] yielded a Ki (GSK-3β (AA 1-420)) of 100 to 1000 nM, a Ki (Aurora-2) of 1000 to 20000 nM and a melting point of 266 to 267 °C.

Compound `c1ccc(-c2cc(Nc3nc(-c4ccccc4)nc4ccccc34)[nH]n2)cc1` [III-71, (5-Phenyl-2H-pyrazol-3-yl)-(2-phenyl-quinazolin-4-yl)-amine] has a Ki (GSK-3β (AA 1-420)) of 100 to 1000 nM, a Ki (Aurora-2) of 100 to 1000 nM and a melting point of 207 to 209 °C.

In the case of `Cc1cc(Nc2nc(-c3ccc(C(C)(C)C)cc3)nc3ccccc23)[nH]n1` [III-41, [2-(4-tert-Butylphenyl)-quinazolin-4-yl]-(5-methyl-2H-pyrazol-3-yl)-amine], the Ki (GSK-3β (AA 1-420)) is reported as 100 to 1000 nM, the Ki (Aurora-2) is reported as less than 100 nM and the melting point is reported as greater than 300 °C.

Compound `Cc1cc(Nc2nc(N3CCC(N4CCCC4)CC3)nc3ccccc23)[nH]n1` [III-113] has a Ki (Aurora-2) of 100 to 1000 nM and a melting point of 191 °C.

`Cc1cc(Nc2nc(N3CCC4(CC3)OCCO4)nc3ccccc23)[nH]n1` [III-112, [2-(1,4-Dioxa-8-aza-spiro[4,5]dec-8-yl)-quinazolin-4-yl]-(5-methyl-2H-pyrazol-3-yl)-amine] showed a Ki (GSK-3β (AA 1-420)) of 100 to 1000 nM, a Ki (Aurora-2) of less than 100 nM and a melting point of 191 °C.

For `c1ccc2c(c1)CCCN2c1nc(Nc2cc(C3CC3)n[nH]2)c2ccccc2n1` [III-121, (5-Cyclopropyl-2H-pyrazol-3-yl)-[2-(3,4-dihydro-2H-quinolin-1-yl)-quinazolin-4-yl]-amine], the Ki (GSK-3β (AA 1-420)) was less than 100 nM, the Ki (Aurora-2) was less than 100 nM and the melting point was 137 to 145 °C.

Compound `c1ccc(-c2nc(Nc3cc(C4CC4)[nH]n3)c3ccncc3n2)cc1` [IV-32, (5-Cyclopropyl-2H-pyrazol-3-yl)-(2-phenyl-pyrido[3,4-d]pyrimidin-4-yl)-amine] has a melting point of 232 to 233 °C.

In the case of `Cc1cc(Nc2nc(-c3cccc(Oc4ccccc4)c3)nc3ccccc23)[nH]n1` [III-60, (5-Methyl-2H-pyrazol-3-yl)-[2-(3-phenoxyphenyl)-quinazolin-4-yl]-amine], the Ki (GSK-3β (AA 1-420)) is reported as less than 100 nM, the Ki (Aurora-2) is reported as less than 100 nM and the melting point is reported as 231 to 232 °C.

`c1ccc2c(c1)CCN2c1nc(Nc2cc(C3CC3)n[nH]2)c2ccccc2n1` [III-119, (5-Cyclopropyl-2H-pyrazol-3-yl)-[2-(2,3-dihydro-indol-1-yl)-quinazolin-4-yl]-amine] gave a Ki (GSK-3β (AA 1-420)) of less than 100 nM, a Ki (Aurora-2) of less than 100 nM and a melting point of 150 to 153 °C.

`Cc1cc(Nc2cc(-c3ccccc3)nc3ccccc23)n[nH]1` [Compound V-4, (5-Methyl-2H-pyrazol-3-yl)-(2-phenyl-quinolin-4-yl)-amine] showed a Ki (GSK-3β (AA 1-420)) of 1000 to 20000 nM, a Ki (Aurora-2) of 100 to 1000 nM and a melting point of 242 to 244 °C.

For `COCCCc1cc(Nc2nc(-c3ccccc3)nc3ccccc23)[nH]n1` [III-77, [-(3-Methoxyprop-1-yl)-2H-pyrazol-3-yl]-(2-phenyl-quinazolin-4-yl)-amine], the Ki (GSK-3β (AA 1-420)) was less than 100 nM, the Ki (Aurora-2) was less than 100 nM and the melting point was 169 to 170 °C.

`Cc1cc(Nc2nc(N3CCN(C)CC3)nc3ccccc23)[nH]n1` [III-107, [2-(4-Methylpiperazin-1-yl)-quinazolin-4-yl]-(5-methyl-2H-pyrazol-3-yl)-amine] gave a Ki (GSK-3β (AA 1-420)) of 100 to 1000 nM, a Ki (Aurora-2) of 100 to 1000 nM and a melting point of 105 to 107 °C.

`Cc1cc(Nc2nc(-c3cc(Cl)cc(Cl)c3)nc3ccccc23)[nH]n1` [III-36, [2-(3,5-Dichlorophenyl)-quinazolin-4-yl]-(5-methyl-2H-pyrazol-3-yl)-amine] showed a melting point of 228 °C.
